Laboratory results: patent US20120302573A1, “METHODS OF INHIBITING PRO MATRIX METALLOPROTEINASE ACTIVATION” (priority 2011, published 2012)
“And” between values parts separate entries of the source, which are not always exact repeats. Identical values can stand only once.

What was measured:
proMMP9 = biological target: T1, proMMP9 (Homo sapiens, UniProt P14780); test: Activation of proMMP9 by human fetal lung fibroblast (HFL-1) cultures (Western blot); assay type: cell-based; settings: 3.3 μM, 72 hrs, mAb-L51/82
T1 construct: host or cells: HFL-1
Procedure: Compound α was assessed additionally for ability to block the maturation of proMMP9 to active MMP9 in cultures of human fetal lung fibroblasts (HFL-1, American Type Culture Collection #CCL-153). Unlike rat synoviocytes, HFL-1 cells were unable to process proMMP9 to the active form without addition of neutrophil elastase. […] Rather, the function of elastase in this assay may be to inactivate tissue inhibitors of matrix metalloproteinases (TIMPs) that repress endogenous pathways of MMP9 activation (Am J Respir Crit Care Med; 1999; 159:1138-46).
HLF-1 were maintained in monolayer culture in DMEM with 10% FCS and were used between passage numbers 5-15. HLF-1 were embedded in collagen gels as described for rat SCW synoviocytes (vida supra). […] The plates were cultured an additional 72 hrs, at which time MMP9 secreted into the conditioned media was bound to gelatin-sepharose and evaluated by Western blot analysis as described for the rat synoviocyte cultures (vida supra). mAb-51/82 detected three forms of MMP9 in HFL-1 cultures. […]
A second experiment was performed to determine if the 80 kD form was mature active MMP9 and to determine the potency of Compound α as an inhibitor of MMP9 maturation in this assay. […] In the absence of Compound α, pAb-1246 readily detected MMP9 with an electrophoretic mobility of approximately 80 kD. […]

[1] = biological target: T2, MMP9 mediated gelatinase activity (Rattus norvegicus, UniProt P50282); test: In situ zymography of gelatinase activity in livers of SCW-induced rats dosed with compound; assay type: in vivo; settings: for Liver gelatinase Intensity, Mean / Liver gelatinase Intensity, individual rats: Day 25-28
T2 construct: from tissue; host or cells: liver cryosections of female Lewis rats
Text: In situ zymography provides an alternative approach to assess active MMP9 in tissues (J Histochem Cytochem; 2004; 52:711-722). Tissue sections are overlain with fluorescein-conjugated gelatin wherein the conjugation is sufficiently dense to cause the fluorescein to be dye-quenched (DQ). Proteolytic degradation of the DQ-gelatin releases the fluorescein from the quenching effect giving rise to bright green fluorescence at the site of degradation. Because in situ zymography requires the use of frozen sections, calcified tissues are problematic. However, an additional feature of the SCW arthritis model is the development of hepatic granulomatous disease (J Immunol; 1986; 137:2199-2209), and MMP9 reportedly plays a role in macrophage recruitment in the granulomas response to mycobacteria (Infect Immun; 2006; 74:6135-6144). Consequently, granulomatous livers from SCW-treated rats were assessed for active MMP9 by in situ zymography.
As described above, Female Lewis (LEW/N) rats, 5-6 weeks of age (80-100 g) were injected (i.p.) with saline or SCW PG-PS. On day 28, when the granulomatous response was well established, animals were sacrificed and livers were frozen in OCT cryo-sectioning medium and 10 μm sections were cut on a Cryome HM 500 M cryotome and mounted on glass microscope slides. Sections were air dried briefly. MMP9 was confirmed as the source of the gelatinase activity in the liver by treating liver sections with monoclonal antibodies directed against the active site of the two major gelatinases MMP9 and MMP2. Liver sections overlain with 50 μL of 100 μg/mL neutralizing mouse monoclonal antibodies directed against MMP9 (Calbiochem, clone 6-6B), or MMP2 (Millipore, clone CA-4001), or with PBS for 1 hr at room temperature. Tissues were rinsed once with PBS, blotted, and briefly air dried and then overlain with DQ-gelatin (Invitrogen) dissolved to 1 mg/mL in deionized water and then diluted 1:10 in 1% wt/vol low gelling point agarose type VII (Sigma) in PBS. The sections were covered with coverslips, incubated in the dark at room temperature for 20 min, and imaged on an Olympus IX80 inverted microscope fitted with fluorescence optics, using SlideBook™ imaging software (Intelligent Imaging Innovations, Inc., Philadelphia, Pa.; version 5.0). Fluorescence intensity was determined (Table 9). When compared to a saline-treated rat, gelatinase activity was abundantly expressed in granulomatous liver sections obtained from a rat with SCW arthritis.
Next, liver in situ zymography was used to assess the relative presence of active MMP9 in rats dosed with vehicle vs. Compound α. Female Lewis (LEW/N) rats, 5-6 weeks of age (80-100 g) were injected (i.p.) with saline or SCW PG-PS. Commencing on day 25, randomized groups of rats (n=3 rats/group) received vehicle or 20 or 50 mg/kg Compound α BID by oral gavage. Vehicle consisted of an aqueous mixture containing 2% (v:v) N-methylpyrrolidone, 5% (v:v) glycerine, and 20% (w:v) captisol. Treatment continued daily through the morning of day 28.
Four hrs after the AM dose on day 28, rats were sacrificed and livers assessed for active MMP9 by in situ zymography (Table 10). Gelatinase activity was increased markedly in SCW-induced rats, but activity was reduced by approximately 80% in animals treated with 50 mg/kg Compound α.

T2 sequence (P50282 108-708): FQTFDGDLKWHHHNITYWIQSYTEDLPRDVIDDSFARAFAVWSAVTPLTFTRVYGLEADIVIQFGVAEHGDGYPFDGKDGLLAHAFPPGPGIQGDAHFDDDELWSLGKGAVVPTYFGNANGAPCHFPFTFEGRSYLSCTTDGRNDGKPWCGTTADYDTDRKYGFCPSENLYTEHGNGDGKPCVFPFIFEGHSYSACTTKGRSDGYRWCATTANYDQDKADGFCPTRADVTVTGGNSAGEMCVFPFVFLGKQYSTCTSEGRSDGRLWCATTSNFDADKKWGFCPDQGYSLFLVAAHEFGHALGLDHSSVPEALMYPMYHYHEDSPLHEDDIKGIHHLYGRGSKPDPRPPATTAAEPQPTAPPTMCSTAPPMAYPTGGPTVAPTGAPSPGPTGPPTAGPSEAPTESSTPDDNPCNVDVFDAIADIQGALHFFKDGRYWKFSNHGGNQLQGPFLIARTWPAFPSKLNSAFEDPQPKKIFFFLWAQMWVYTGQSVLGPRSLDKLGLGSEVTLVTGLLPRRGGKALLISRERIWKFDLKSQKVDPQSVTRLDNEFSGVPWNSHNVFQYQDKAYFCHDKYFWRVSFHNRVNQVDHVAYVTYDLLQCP
T1 sequence (P14780 20-707 limits assumed): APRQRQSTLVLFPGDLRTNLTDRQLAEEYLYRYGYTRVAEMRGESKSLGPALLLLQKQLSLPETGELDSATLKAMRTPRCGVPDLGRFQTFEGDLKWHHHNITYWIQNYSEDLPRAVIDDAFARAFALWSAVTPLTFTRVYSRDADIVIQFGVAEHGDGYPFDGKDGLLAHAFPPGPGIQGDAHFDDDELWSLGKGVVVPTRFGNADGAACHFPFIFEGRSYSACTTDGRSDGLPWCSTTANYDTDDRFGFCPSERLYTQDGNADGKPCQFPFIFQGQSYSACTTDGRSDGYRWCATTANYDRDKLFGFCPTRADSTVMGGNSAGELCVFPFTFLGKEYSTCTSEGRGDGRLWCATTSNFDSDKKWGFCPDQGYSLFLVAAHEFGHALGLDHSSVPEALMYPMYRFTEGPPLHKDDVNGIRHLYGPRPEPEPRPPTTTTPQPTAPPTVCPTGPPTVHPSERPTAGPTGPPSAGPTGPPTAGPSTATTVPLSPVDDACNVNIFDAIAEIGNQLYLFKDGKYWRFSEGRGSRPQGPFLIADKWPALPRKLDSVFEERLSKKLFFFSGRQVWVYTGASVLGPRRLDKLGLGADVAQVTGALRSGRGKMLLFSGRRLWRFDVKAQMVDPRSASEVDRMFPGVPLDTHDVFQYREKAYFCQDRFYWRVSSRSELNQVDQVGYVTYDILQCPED

Cc1nc(C)c(-c2csc(Nc3cc(S(N)(=O)=O)ccc3OC(C)C)n2)s1 [Compound α, 3-(2′,4′-Dimethyl-[4,5′]bithiazolyl-2-ylamino)-4-isopropoxy-benzenesulfonamide.HBr]
Signal Total (proMMP9): 91346 INT*mm^2
Liver gelatinase Intensity, Mean ([1]; 20 mg/kg BID oral): 55.2 RLU × 10^6
Liver gelatinase Intensity, individual rats ([1]; 20 mg/kg BID oral): 43.0 RLU × 10^6 and 69.0 RLU × 10^6 and 53.7 RLU × 10^6
Liver gelatinase Intensity, Mean ([1]; 50 mg/kg BID oral): 11.1 RLU × 10^6
Liver gelatinase Intensity, individual rats ([1]; 50 mg/kg BID oral): 3.2 RLU × 10^6 and 25.6 RLU × 10^6 and 4.5 RLU × 10^6
reduction of liver gelatinase activity ([1]; 50 mg/kg BID oral, day 28): approximately 80%
